Patent US20120202822A1, “COMBINATION” (priority 2009, published 2012)

What was measured:
Test in all cases: Fixed Ratio Drug Combination Assay, cell proliferation (CellTiter Glo)
Format in all cases: cell-based, human
[1] = system: COLO205; conditions: for Ymin/T0: 72 hours; for IC50: Homo sapiens, COLO 205, 72 hours, read-out: gIC50
Experimental: (§1) Combination drug tests with Compounds A and B were conducted using a panel of cell lines from human colon cancers (n=25) (Table 1). Cell lines were purchased commercially [from ATCC (Manassas, Va., USA) or DSMZ (Braunschweig, Germany)] and grown in RPMI-1640 supplemented with 2 mM glutamine, 1 mM sodium pyruvate and 10% fetal bovine serum and maintained at 37° C. and 5% CO2 in a humid incubator.
(§2) The dilution design of the Fixed Ratio Drug Combination Assay can be seen in FIG. 1. First, the test compounds were prepared as 10 mM stocks in 100% dimethyl sulfoxide (DMSO). Further dilutions of the compounds were made with DMSO. The first test compound (designated as Compound A) is diluted horizontally in a 96 well microtiter plate in rows B-E using a 3-fold dilution series for 10 dilution points. A second test compound (designated as Compound B) is diluted horizontally in a separate 96 well microtiter plate in rows D-G using a 3-fold dilution series for 10 dilution points. The two compounds are combined using equal volumes from each drug plate into cell culture media. […] Compound A is individually titrated in rows B and C, while only Compound B is dosed in rows F and G of the plate. An additional 1:10 dilution of the drugs is performed in cell culture media prior to addition to the cells. Drug addition to the cells results in a further 1:2 dilution of drugs. The total dilution of the drug plate to the cells is […]. The final dosing concentration range for Compound B was 0.1-1000.0 nM and was 0.5-10000.0 nM for Compound A. The positive control consists of culture media with DMSO at 0.1% and cells and no drug. The negative control consists of culture media with DMSO at 0.1%. solution.
(§3) Assays were performed in 96 well microtiter plates with appropriate seeding densities estimated from previous studies of each cell line. Following dosing, the cell lines are incubated at 37° C., 5% CO2 in humid air for 72 hours. Cell proliferation was measured using the CellTiter Glo (Promega Corporation, Madison, Wis., USA) reagent according to the manufacturer's protocol. The plates are treated with CellTiter Glo solution and are analyzed for RLU (relative light units) using a Molecular Devices SpectraMax M5 (Sunnyvale, Calif., USA) plate reader.
(§4) Results are expressed as a percentage of the number of cells present at the time of compound addition value (T0) and plotted against compound(s) concentration. The percent intensity values were used in model 205 of the IDBS XLfit plug-in for Microsoft Excel to calculate gIC50 values using a 4 parameter logistical fit. Background correction is made by subtraction of values from wells containing no cells. The midpoint of the growth window (the gIC50) falls half way between the number of cells at the time of compound addition and the growth of control cells treated with DMSO at 72 hrs. The number of cells at time zero is divided from the intensity value at the bottom of the response curve (Ymin) to generate a measure for cell death (Ymin/T0). A value below 1 for Ymin/T0 indicates stronger potency with the treatment when compared to higher values. For duplicate assays, all response metrics are averaged for presentation.
(§5) Three independent metrics were used to analyze the combinatorial effects on growth inhibition of Compound B and Compound A. • 1. Excess over Highest Single Agent (EOHSA)—One standard criterion for measuring drug combinatorial effects is analyzing the effects on cell growth inhibition in absolute terms. In this case, the combination of drugs is compared to the more responsive of the two individual treatments (single agent). For each combination experiment, the percent effect relative to the highest single agent for each dose along the curve is generated. This measure of “Excess of Highest Single Agent (EOHSA)” is one of the criteria used for evaluating synergy of drug combinations. […]

[2] = system: SW1463; conditions: 72 hours; for IC50: Homo sapiens, read-out: gIC50
Experimental: as §1, §2, §3, §4, §5

[3] = system: SW403; conditions: for Ymin/T0: 72 hours; for IC50: Homo sapiens, SW-403, 72 hours, read-out: gIC50
Experimental: as §1, §2, §3, §4, §5

IC50 [1] | IC50 [2] | IC50 [3] | Compound | Ymin/T0 [1] | Ymin/T0 [2] | Ymin/T0 [3]
7.3 nM | > 10000 nM | > 10000 nM | CC(C)(C)c1nc(-c2cccc(NS(=O)(=O)c3c(F)cccc3F)c2F)c(-c2ccnc(N)n2)s1 [Compound A, N-{3-[5-(2-amino-4-pyrimidinyl)-2-(1,1-dimethylethyl)-1,3-thiazol-4-yl]-2-fluorophenyl}-2,6-difluorobenzenesulfonamide] | 1.2 | 1.9 | 2.7
12 nM | 8.2 nM | 1.5 nM | COc1ncc(-c2ccc3nccc(-c4ccnnc4)c3c2)cc1NS(=O)(=O)c1ccc(F)cc1F [Compound B, 2,4-difluoro-N-{2-(methyloxy)-5-[4-(4-pyridazinyl)-6-quinolinyl]-3-pyridinyl}benzenesulfonamide] | 1.4 | 0.9 | 0.5
